# Starred links: 1 amine or outer side, 2 acyl side, 3 side chain; linkers in the order of their positions; H or OH if unused. Non-standard residues stand in square brackets, D forms with d. Residues, ends and D or L forms follow the SMILES beside them. Groups on a side chain read outwards from the residue. *: point of attachment. dNMe1Nal = CN[C@H](Cc1cccc2ccccc12)C(=O)O; dPhe(4-Cl) = N[C@H](Cc1ccc(Cl)cc1)C(=O)O; 1Nal = N[C@@H](Cc1cccc2ccccc12)C(=O)O; d1Nal = N[C@H](Cc1cccc2ccccc12)C(=O)O; d2Nal = N[C@H](Cc1ccc2ccccc2c1)C(=O)O; dLys(iPr) = CC(C)NCCCC[C@@H](N)C(=O)O; d(hCit) = NC(=O)NCCCC[C@@H](N)C(=O)O; Lys(iPr) = CC(C)NCCCC[C@H](N)C(=O)O; NMeY = CN[C@@H](Cc1ccc(O)cc1)C(=O)O; dBta = N[C@H](Cc1csc2ccccc12)C(=O)O; d3Pal = N[C@H](Cc1cccnc1)C(=O)O; d2Thi = N[C@H](Cc1cccs1)C(=O)O; Nicotinoyl = O=C(c1cccnc1)*; NMeS = CN[C@@H](CO)C(=O)O; Morpholide = C1CN(*)CCO1; CO = O=C([*:1])[*:2]; Sar = CNCC(=O)O
# Tests used:
# [1] = test system: LH concentration in the blood; assay: In vivo LH inhibition in male castrate rats; design: species or system rat; settings: AUC of log(LHt/LHi) over 24 hours, 30 ug/kg subcutaneous bolus
# Description: The compound to be tested is administered at 30 μg/kg subcutaneously by bolus injection to male castrate rats and blood samples are collected periodically over 24 hours. The AUC (area under the curve) of the LH supression data as a function of time is calculated using the formula log (LHt /LHi) wherein LHt is the LH concentration in the blood at time t and LHi is the initial baseline value for the concentration of LH in the blood. The AUC values are negative numbers.
# LHRH receptors = target: T1, LHRH receptors (Rattus norvegicus, UniProt P30969); assay: Radioligand receptor binding assay, rat pituitary membranes; settings: radioiodinated [D-Leu6-des Gly10]-LHRH ethyl amide 50 pM, 2 hours at 4° C., read-out: Receptor Binding pkI (converted)
# T1 sequence (P30969 1-327): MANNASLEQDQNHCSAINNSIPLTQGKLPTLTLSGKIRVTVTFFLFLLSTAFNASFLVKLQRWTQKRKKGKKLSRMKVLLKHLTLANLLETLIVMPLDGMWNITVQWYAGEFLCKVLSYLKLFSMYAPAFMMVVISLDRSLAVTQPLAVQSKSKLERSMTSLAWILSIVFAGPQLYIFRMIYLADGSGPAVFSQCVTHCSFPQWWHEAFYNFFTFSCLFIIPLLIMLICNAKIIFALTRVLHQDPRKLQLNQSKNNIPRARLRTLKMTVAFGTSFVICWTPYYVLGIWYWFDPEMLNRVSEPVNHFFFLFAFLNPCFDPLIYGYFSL
# Description: The radioligand (50 pM), receptors, and compounds to be tested are coincubated for 2 hours at 4° C. Bound ligand is separated from free ligand via centrifugation and aspiration.
SMILES,Ki (LHRH receptors) [nM],AUC (24 hr. after 30 ug/kg) [1]
CC(=O)N[C@H](Cc1ccc2ccccc2c1)C(=O)N[C@H](Cc1ccc(Cl)cc1)C(=O)N[C@H](Cc1cccnc1)C(=O)N[C@@H](CO)C(=O)N(C)[C@@H](Cc1ccc(O)cc1)C(=O)N[C@H](CCCCNC(=O)N1CCOCC1)C(=O)N[C@@H](CC(C)C)C(=O)N[C@@H](CCCCNC(C)C)C(=O)N1CCC[C@H]1C(=O)N[C@H](C)C(N)=O [Ex. 69] (Ac-[d2Nal][dPhe(4-Cl)][d3Pal]S[NMeY][dK]([CO-Morpholide])L[Lys(iPr)]P[dA]-NH2),0.017,-467
"CC(=O)N[C@H](Cc1ccc(Cl)cc1)C(=O)N[C@H](Cc1ccc(Cl)cc1)C(=O)N[C@H](Cc1cccc2ccccc12)C(=O)N[C@@H](CO)C(=O)N(C)[C@@H](Cc1ccc(O)cc1)C(=O)N[C@H](CCCCN)C(=O)N[C@@H](CC(C)C)C(=O)N[C@@H](CCCNC(=N)N)C(=O)N1CCC[C@H]1C(=O)N[C@H](C)C(N)=O [Ex. 46, N-Ac-D-4-Cl-Phe-D-4-Cl-Phe-D-1-Nal-Ser-N-Me-Tyr-D-Lys-Leu-Arg-Pro-D-AlaNH2] (Ac-[dPhe(4-Cl)][dPhe(4-Cl)][d1Nal]S[NMeY][dK]LRP[dA]-NH2)",,-1513
"CC(=O)N[C@H](Cc1ccc(Cl)cc1)C(=O)N[C@H](Cc1ccc(Cl)cc1)C(=O)N[C@H](Cc1csc2ccccc12)C(=O)N[C@@H](CO)C(=O)N(C)[C@@H](Cc1ccc(O)cc1)C(=O)N[C@H](CCCCNC(C)C)C(=O)N[C@@H](CC(C)C)C(=O)N[C@@H](CCCNC(=N)N)C(=O)N1CCC[C@H]1C(=O)N[C@H](C)C(N)=O [Ex. 60, N-Ac-D-4-Cl-Phe-D-4-Cl-Phe-D-3-Bal-Ser-N-Tyr-D-Lys(N-epsilon-isopropyl)-Leu-Arg-Pro-D-AlaNH2] (Ac-[dPhe(4-Cl)][dPhe(4-Cl)][dBta]S[NMeY][dLys(iPr)]LRP[dA]-NH2)",0.0229,
"CC(=O)N[C@H](Cc1ccc(Cl)cc1)C(=O)N[C@H](Cc1ccc(Cl)cc1)C(=O)N[C@H](Cc1csc2ccccc12)C(=O)N[C@@H](CO)C(=O)N(C)[C@@H](Cc1ccc(O)cc1)C(=O)N[C@H](CCCCN)C(=O)N[C@@H](CC(C)C)C(=O)N[C@@H](CCCN=C(N)N)C(=O)N1CCC[C@H]1C(=O)N[C@H](C)C(N)=O [Ex. 54, N-Ac-D-4-Cl-Phe-D-4-Cl-Phe-D-3-Bal-Ser-N-Me-Tyr-D-Lys-Leu-Arg-Pro-D-AlaNH2] (Ac-[dPhe(4-Cl)][dPhe(4-Cl)][dBta]S[NMeY][dK]LRP[dA]-NH2)",0.0339,
"CC(=O)N(C)CC(=O)N[C@H](Cc1ccc(Cl)cc1)C(=O)N[C@H](Cc1cccs1)C(=O)N[C@@H](CO)C(=O)N(C)[C@@H](Cc1ccc(O)cc1)C(=O)N[C@H](CCCCN)C(=O)N[C@@H](CC(C)C)C(=O)N[C@@H](CCCNC(=N)N)C(=O)N1CCC[C@H]1C(=O)N[C@H](C)C(N)=O [Ex. 49, N-Ac-Sar-D-4-Cl-Phe-D-2-Thia-Ser-N-Me-Tyr-D-Lys-Leu-Arg-Pro-D-AlaNH2] (Ac-[Sar][dPhe(4-Cl)][d2Thi]S[NMeY][dK]LRP[dA]-NH2)",0.0316,
"CC(=O)N[C@H](Cc1ccc2ccccc2c1)C(=O)N[C@H](Cc1ccc(Cl)cc1)C(=O)N[C@H](Cc1cccnc1)C(=O)N[C@@H](CO)C(=O)N(C)[C@@H](Cc1ccc(O)cc1)C(=O)N[C@H](Cc1cccnc1)C(=O)N[C@@H](CC(C)C)C(=O)N[C@@H](CCCCNC(C)C)C(=O)N1CCC[C@H]1C(=O)N[C@H](C)C(N)=O [Ex. 61, N-Ac-D-2-Nal-D-4-Cl-Phe-D-3-Pal-Ser-N-Me-Tyr-D-3-Pal-Leu-Lys(N-epsilon-isopropyl)-Pro-D-AlaNH2] (Ac-[d2Nal][dPhe(4-Cl)][d3Pal]S[NMeY][d3Pal]L[Lys(iPr)]P[dA]-NH2)",0.049,
"CC(=O)N(C)CC(=O)N[C@H](Cc1ccc(Cl)cc1)C(=O)N[C@@H](Cc1cccc2ccccc12)C(=O)N[C@@H](CO)C(=O)N(C)[C@@H](Cc1ccc(O)cc1)C(=O)N[C@H](CCCCN)C(=O)N[C@@H](CC(C)C)C(=O)N[C@@H](CCCNC(=N)N)C(=O)N1CCC[C@H]1C(=O)N[C@H](C)C(N)=O [Ex. 52, N-Ac-Sar-D-4-Cl-Phe-1-Nal-Ser-N-Me-Tyr-D-Lys-Leu-Arg-Pro-D-AlaNH4] (Ac-[Sar][dPhe(4-Cl)][1Nal]S[NMeY][dK]LRP[dA]-NH2)",0.017,
"CC(=O)N[C@H](Cc1ccc(Cl)cc1)C(=O)N[C@H](Cc1ccc(Cl)cc1)C(=O)N(C)[C@H](Cc1cccc2ccccc12)C(=O)N[C@@H](CO)C(=O)N(C)[C@@H](Cc1ccc(O)cc1)C(=O)N[C@H](CCCCN)C(=O)N[C@@H](CC(C)C)C(=O)N[C@@H](CCCNC(=N)N)C(=O)N1CCC[C@H]1C(=O)N[C@H](C)C(N)=O [Ex. 56, N-Ac-D-4-Cl-Phe-D-4-Cl-Phe-N-Me-D-1-Nal-Ser-N-Me-Tyr-D-Lys-Leu-Arg-Pro-D-AlaNH2] (Ac-[dPhe(4-Cl)][dPhe(4-Cl)][dNMe1Nal]S[NMeY][dK]LRP[dA]-NH2)",0.676,

# Further lines, with some results ahead:
Ki (LHRH receptors) [nM],SMILES,AUC (24 hr. after 30 ug/kg) [1]
0.479,"CC(=O)N[C@H](Cc1ccc2ccccc2c1)C(=O)N[C@H](Cc1ccc(Cl)cc1)C(=O)N[C@H](Cc1cccnc1)C(=O)N(C)[C@@H](CO)C(=O)N[C@@H](CCCCNC(=O)c1cccnc1)C(=O)N[C@H](CCCCNC(=O)c1cccnc1)C(=O)N[C@@H](CC(C)C)C(=O)N[C@@H](CCCCNC(C)C)C(=O)N1CCC[C@H]1C(=O)N[C@H](C)C(N)=O [Ex. 35, N-Ac-D-2-Nal-D-4-Cl-Phe-D-3-Pal-N-Me-Ser-Lys-(N-epsilon-nicotinyl)-D-Lys-(N-epsilon-nicotinyl)-Leu-Lys-(N-epsilon-isopropyl)-Pro-D-AlaNH2] (Ac-[d2Nal][dPhe(4-Cl)][d3Pal][NMeS]K(Nicotinoyl)[dK](Nicotinoyl)L[Lys(iPr)]P[dA]-NH2)",-510
0.0977,"CC(=O)N[C@H](Cc1ccc(Cl)cc1)C(=O)N[C@H](Cc1ccc(Cl)cc1)C(=O)N[C@H](Cc1cccc2ccccc12)C(=O)N[C@@H](CO)C(=O)N(C)[C@@H](Cc1ccc(O)cc1)C(=O)N[C@H](CCCCNC(N)=O)C(=O)N[C@@H](CC(C)C)C(=O)N[C@@H](CCCNC(=N)N)C(=O)N1CCC[C@H]1C(=O)N[C@H](C)C(N)=O [Ex. 59, N-Ac-D-4-Cl-Phe-D-4-Cl-Phe-D-1-Nal-Ser-N-Me-Tyr-D-H-Cit-Leu-Arg-Pro-D-AlaNH2] (Ac-[dPhe(4-Cl)][dPhe(4-Cl)][d1Nal]S[NMeY][d(hCit)]LRP[dA]-NH2)",
0.603,"CC(=O)NCC(=O)N[C@H](Cc1ccc(Cl)cc1)C(=O)N[C@H](Cc1cccnc1)C(=O)N[C@@H](CO)C(=O)N(C)[C@@H](Cc1ccc(O)cc1)C(=O)N[C@H](CCCCNC(=O)c1cccnc1)C(=O)N[C@@H](CC(C)C)C(=O)N[C@@H](CCCCNC(C)C)C(=O)N1CCC[C@H]1C(=O)N[C@H](C)C(N)=O [Ex. 42, N-Ac-Gly-D-4-Cl-Phe-D-3-Pal-Ser-N-Me-Tyr-D-Lys-(N-epsilon-nicotinyl)-Leu-Lys(N-epsilon-isopropyl)-Pro-D-AlaNH2] (Ac-G[dPhe(4-Cl)][d3Pal]S[NMeY][dK](Nicotinoyl)L[Lys(iPr)]P[dA]-NH2)",
0.0562,"CCNC(=O)[C@@H]1CCCN1C(=O)[C@H](CCCN=C(N)N)N(C)C(=O)[C@H](CC(C)C)NC(=O)[C@@H](Cc1c[nH]c2ccccc12)NC(=O)[C@H](Cc1ccc(O)cc1)NC(=O)[C@H](CO)NC(=O)[C@H](Cc1c[nH]c2ccccc12)NC(=O)[C@H](Cc1cnc[nH]1)NC(=O)[C@@H]1CCC(=O)N1 [Ex. 23, (pyro)Glu-His-Trp-Ser-Tyr-D-Trp-Leu-N-Me-Arg-ProNHEt]",

# Reference: patent US5110904A (Abbott Laboratories, priority 1990, dated 1992)
